Measurements published in patent US12503436B2, “Compounds and compositions for treating conditions associated with STING activity” (NOVARTIS PHARMA AG, priority 2021, dated 2025).

Target: STING (Homo sapiens, UniProt Q86WV6, G230A/H232R/R293Q/R71H)
Test: STING reporter assay in THP1-Dual KO-IFNAR2 cells (2′3′cGAMP stimulation, luciferase reporter)
Type: cell-based
Conditions: 15 μM 2′3′cGAMP stimulation, 24 h, read-out: Pharmaron, THP1_IFNAR2 STING 24 h Luci Normalized: GeoMean EC50
In short: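 EC50 from secreted luciferase (QUANTI-Luc Plus luminescence of supernatant) after 24 h at 37 °C, 5% CO2. Cells: THP1-Dual KO-IFNAR2, treated with compound (0.0017-100 μM final) plus lipofected 2′3′cGAMP at 15 μM final.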

Sequence of STING (Q86WV6 whole entry R71H/G230A/H232R/R293Q): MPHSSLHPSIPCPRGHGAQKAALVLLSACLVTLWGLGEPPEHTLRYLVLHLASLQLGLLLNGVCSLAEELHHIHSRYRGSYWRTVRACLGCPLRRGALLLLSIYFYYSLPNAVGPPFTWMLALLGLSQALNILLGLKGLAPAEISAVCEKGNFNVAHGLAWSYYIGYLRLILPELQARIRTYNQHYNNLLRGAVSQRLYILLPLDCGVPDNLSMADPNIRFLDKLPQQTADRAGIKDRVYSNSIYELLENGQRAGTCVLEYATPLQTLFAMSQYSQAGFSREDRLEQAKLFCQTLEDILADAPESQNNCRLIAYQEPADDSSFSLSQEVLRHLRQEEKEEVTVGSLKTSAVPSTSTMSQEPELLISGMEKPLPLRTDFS

SMILES	EC50 [nM]
CC(=O)Nc1c[nH]c2ccc(OCCn3cc(C(F)(F)F)cn3)cc12 [Compound 197, N-(5-(2-(4-(trifluoromethyl)-1H-pyrazol-1-yl)ethoxy)-1H-indol-3-yl)acetamide]	5000 to 100000
CC(=O)Nc1c[nH]c2ccc(CCOc3ccc(C)cc3)cc12 [Compound 228, N-(5-(2-(p-tolyloxy)ethyl)-1H-indol-3-yl)acetamide]	200 to 1000
N#CC1(C(=O)Nc2c[nH]c3ccc(O[C@H]4C[C@@H](c5ccc(C(F)(F)F)cc5)C4)cc23)CC1 [Compound 362, 1-cyano-N-(5-(cis-3-(4-(trifluoromethyl)phenyl)cyclobutoxy)-1H-indol-3-yl)cyclopropane-1-carboxamide]	200 to 1000
CC1(C(=O)Nc2c[nH]c3ccc(O[C@H]4C[C@H](c5ccc(C(F)(F)F)cc5)C4)cc23)CCNCC1 [Compound 460, 4-methyl-N-{5-[(1R,3R)-3-[4-(trifluoromethyl)phenyl]cyclobutoxy]-1H-indol-3-yl}piperidine-4-carboxamide]	1000 to 5000
CC(=O)Nc1c[nH]c2ccc(OCC3CCN(CC(F)(F)F)CC3)cc12 [Compound 119, N-(5-((1-(2,2,2-trifluoroethy|)piperidin-4-yl)methoxy)-1H-indol-3-yl)acetamide]	5000 to 100000
O=C(Nc1c[nH]c2ccc(O[C@H]3C[C@H](c4ccc(C(F)(F)F)cc4)C3)cc12)C1CN(CC(F)(F)F)C1 [Compound 244, 1-(2,2,2-trifluoroethyl)-N-(5-(trans-3-(4-(trifluoromethyl)phenyl)cyclobutoxy)-1H-indol-3-yl)azetidine-3-carboxamide]	40 to 200
C[C@H]1C[C@@H](C(=O)Nc2c[nH]c3ccc(OCC[C@@H]4C[C@@H]5CN(CC(F)(F)F)C[C@@H]5C4)cc23)C1 [Compound 150, (1R,3S)—N-(5-{2-[(3aR,5S,6aS)-2-(2,2,2-trifluoroethyl)-octahydrocyclopenta[c]pyrrol-5-yl]ethoxy}-1H-indol-3-yl)-3-methylcyclobutane-1-carboxamide]	200 to 1000
CC1(C)CC1C(=O)Nc1c[nH]c2ccc(OCCc3ccc(C(F)(F)F)cc3)cc12 (centres unmarked) [Compound 192, 2,2-dimethyl-N-(5-(4-(trifluoromethyl)phenethoxy)-1H-indol-3-yl)cyclopropane-1-carboxamide]	40 to 200
O=C(Nc1c[nH]c2ccc(OCCc3ccc(C(F)(F)F)cc3)cc12)C1(C(F)(F)F)CC1 [Compound 185, 1-(trifluoromethyl)-N-(5-(4-(trifluoromethyl)phenethoxy)-1H-indol-3-yl)cyclopropane-1-carboxamide]	200 to 1000
COCC(=O)Nc1c[nH]c2ccc(O[C@H]3C[C@H](c4ccc(C(F)(F)F)cc4)C3)cc12 [Compound 258, 2-methoxy-N-(5-(trans-3-(4-(trifluoromethyl)phenyl)cyclobutoxy)-1H-indol-3-yl)acetamide]	40 to 200
O=C(Nc1c[nH]c2ccc(OCCc3cnc(N4CCC(F)(F)CC4)c(F)c3)cc12)C1CC1 [Compound 183, N-(5-(2-(6-(4,4-difluoropiperidin-1-yl)-5-fluoropyridin-3-yl)ethoxy)-1H-indol-3-yl)cyclopropanecarboxamide]	200 to 1000
CC1(C(=O)Nc2c[nH]c3ccc(OCCc4ccc(C(F)(F)F)cc4)cc23)CCC1 [Compound 235, 1-methyl-N-(5-(4-(trifluoromethyl)phenethoxy)-1H-indol-3-yl)cyclobutane-1-carboxamide]	40 to 200
CC(=O)Nc1c[nH]c2ccc(CNc3ccc(C(F)(F)F)nc3)cc12 [Compound 125, N-(5-(((6-(trifluoromethyl)pyridin-3-yl)amino)methyl)-1H-indol-3-yl)acetamide]	200 to 1000
O=C(Nc1c[nH]c2ccc(O[C@H]3C[C@H](c4ccc(C(F)(F)F)cc4)C3)cc12)C1CN(CCC(F)(F)F)C1 [Compound 227, N-(5-(trans-3-(4-(trifluoromethyl)phenyl)cyclobutoxy)-1H-indol-3-yl)-1-(3,3,3-trifluoropropyl)azetidine-3-carboxamide]	40 to 200
O=C(Nc1c[nH]c2ccc(O[C@H]3C[C@@H](c4ccc(C(F)(F)F)cc4)C3)cc12)C1CC(F)C1 (stereo partly drawn) [Compound 576, 3-fluoro-N-(5-(cis-3-(4-(trifluoromethyl)phenyl)cyclobutoxy)-1H-indol-3-yl)cyclobutane-1-carboxamide]	40 to 200

The next lines start with the values.

EC50 [nM]	SMILES
1000 to 5000	CN1CC(C(=O)Nc2c[nH]c3ccc(OCCc4ccc(C(F)(F)F)cc4)cc23)C1 [Compound 311, 1-methyl-N-(5-(4-(trifluoromethyl)phenethoxy)-1H-indol-3-yl)azetidine-3-carboxamide]
40 to 200	O=C(Nc1c[nH]c2ccc(OCCc3ccc(C(F)(F)F)cc3)cc12)C1CCOCC1 [Compound 239, N-(5-(4-(trifluoromethyl)phenethoxy)-1H-indol-3-yl)tetrahydro-2H-pyran-4-carboxamide]
40 to 200	O=C(COCC(F)(F)F)Nc1c[nH]c2ccc(OCC[C@@H]3C[C@@H]4CN(CC(F)(F)F)C[C@@H]4C3)cc12 [Compound 434, 2-(2,2,2-trifluoroethoxy)-N-(5-(2-((3aR,5r,6aS)-2-(2,2,2-trifluoroethyl)octahydrocyclopenta[c]pyrrol-5-yl)ethoxy)-1H-indol-3-yl)acetamide]
5000 to 100000	CC(=O)Nc1c[nH]c2ccc(OCCc3cnn(C(F)F)c3)cc12 [Compound 385, N-(5-(2-(1-(difluoromethyl)-1H-pyrazol-4-yl)ethoxy)-1H-indol-3-yl)acetamide]
200 to 1000	O=C(Nc1c[nH]c2ccc(OCc3ccc(C(F)(F)F)cc3)cc12)C1CC(F)C1 (centres unmarked) [Compound 326, 3-fluoro-N-(5-((4-(trifluoromethyl)benzyl)oxy)-1H-indol-3-yl)cyclobutane-1-carboxamide]
1000 to 5000	CC(=O)Nc1c[nH]c2ccc(OC3Cc4ccc(C(F)(F)F)cc4C3)cc12 (centres unmarked) [Compound 473, N-(5-((5-(trifluoromethyl)-2,3-dihydro-1H-inden-2-yl)oxy)-1H-indol-3-yl)acetamide]
40 to 200	O=C(Nc1c[nH]c2ccc(OCCc3ccc(C(F)(F)F)cc3)cc12)[C@H]1C[C@H](CO)C1 [Compound 534, trans-3-(hydroxymethyl)-N-(5-(4-(trifluoromethyl)phenethoxy)-1H-indol-3-yl)cyclobutane-1-carboxamide]
1000 to 5000	CC(=O)Nc1c[nH]c2ccc(CCOc3cnc4cccc(Cl)c4c3)cc12 [Compound 560, N-(5-(2-((5-chloroquinolin-3-yl)oxy)ethyl)-1H-indol-3-yl)acetamide]
1000 to 5000	CC(=O)Nc1c[nH]c2ccc(CCC[C@@H]3C[C@@H]4CN(CC(F)(F)F)C[C@@H]4C3)cc12 [Compound 539, N-(5-(3-((3aR,5r,6aS)-2-(2,2,2-trifluoroethyl)octahydrocyclopenta[c]pyrrol-5-yl)propyl)-1H-indol-3-yl)acetamide]
200 to 1000	O=C(Nc1c[nH]c2ccc(OCC[C@@H]3C[C@@H]4CN(CC(F)(F)F)C[C@@H]4C3)cc12)C1CC1(F)F (stereo partly drawn) [Compound 307, 2,2-difluoro-N-(5-(2-((3aR,5r,6aS)-2-(2,2,2-trifluoroethyl)octahydrocyclopenta[c]pyrrol-5-yl)ethoxy)-1H-indol-3-yl)cyclopropane-1-carboxamide]
1000 to 5000	CC1(C(=O)Nc2c[nH]c3ccc(OCCc4ccc(C(F)(F)F)nc4)cc23)COC1 [Compound 372, 3-methyl-N-(5-(2-(6-(trifluoromethyl)pyridin-3-yl)ethoxy)-1H-indol-3-yl)oxetane-3-carboxamide]
1000 to 5000	CC(=O)Nc1c[nH]c2ccc(CCOc3ccc(C(F)(F)F)cc3)c(Br)c12 [Compound 546, N-(4-bromo-5-(2-(4-(trifluoromethyl)phenoxy)ethyl)-1H-indol-3-yl)acetamide]
200 to 1000	CC1(C(=O)Nc2c[nH]c3ccc(CCCc4ccc(C(F)(F)F)cn4)cc23)CC1 [Compound 464, 1-methyl-N-(5-(3-(5-(trifluoromethyl)pyridin-2-yl)propyl)-1H-indol-3-yl)cyclopropane-1-carboxamide]
40 to 200	COCCOCC(=O)Nc1c[nH]c2ccc(OCC[C@@H]3C[C@@H]4CN(CC(F)(F)F)C[C@@H]4C3)cc12 [Compound 408, 2-(2-methoxyethoxy)-N-(5-(2-((3aR,5r,6aS)-2-(2,2,2-trifluoroethyl)octahydrocyclopenta[c]pyrrol-5-yl)ethoxy)-1H-indol-3-yl)acetamide]
1000 to 5000	CC(=O)Nc1c[nH]c2cc(F)c(CCOc3ccc(C(F)(F)F)cc3)c(F)c12 [Compound 375, N-(4,6-difluoro-5-(2-(4-(trifluoromethyl)phenoxy)ethyl)-1H-indol-3-yl)acetamide]
200 to 1000	O=C(Nc1c[nH]c2ccc(CCOc3ccc(C(F)(F)F)cc3)cc12)C1(F)CC1 [Compound 400, 1-fluoro-N-(5-(2-(4-(trifluoromethyl)phenoxy)ethyl)-1H-indol-3-yl)cyclopropane-1-carboxamide]
40 to 200	CC1(C(=O)Nc2c[nH]c3ccc(CCOc4ccc(C(F)(F)F)cc4)cc23)CCC1 [Compound 309, 1-methyl-N-(5-(2-(4-(trifluoromethyl)phenoxy)ethyl)-1H-indol-3-yl)cyclobutane-1-carboxamide]
200 to 1000	CC1OC(C)C1C(=O)Nc1c[nH]c2ccc(OCCc3ccc(C(F)(F)F)cc3)cc12 (centres unmarked) [Compound 525, 2,4-dimethyl-N-(5-(4-(trifluoromethyl)phenethoxy)-1H-indol-3-yl)oxetane-3-carboxamide]
1000 to 5000	CC1(C(=O)Nc2c[nH]c3ccc(OC[C@@H]4C[C@H]5CC[C@@H](C4)N5CC(F)(F)F)cc23)COC1 [Compound 485, 3-methyl-N-(5-(((1R,3s,5S)-8-(2,2,2-trifluoroethyl)-8-azabicyclo[3.2.1]octan-3-yl)methoxy)-1H-indol-3-yl)oxetane-3-carboxamide]
200 to 1000	CC1(C)CC(C(=O)Nc2c[nH]c3ccc(OCc4ccc(C(F)(F)F)cc4)cc23)C1 [Compound 327, 3,3-dimethyl-N-(5-((4-(trifluoromethyl)benzyl)oxy)-1H-indol-3-yl)cyclobutane-1-carboxamide]
